Source: ChEMBL document CHEMBL3885881, “DrugMatrix”

Species: Rattus norvegicus
Assay: DrugMatrix - Regimen: Daily Repeat
Format: toxicity, organism-based, Sprague-Dawley
Set-up: regimen Daily Repeat, gender Male, age 6-8 weeks
Details: in vivo, po, route oral GAVAGE, […]; for ABSOLUTE BASOPHIL / ABSOLUTE EOSINOPHIL / ABSOLUTE LYMPHOCYTE / ABSOLUTE MONOCYTE / ABSOLUTE SEGMENTED NEUTROPHIL / BASOPHIL / EOSINOPHIL / ERYTHROCYTE COUNT / HEMATOCRIT / HEMOGLOBIN / LEUKOCYTE COUNT / LYMPHOCYTE / MEAN CORPUSCULAR HEMOGLOBIN / MEAN CORPUSCULAR HEMOGLOBIN CONCENTRATION / MEAN CORPUSCULAR VOLUME / MONOCYTE / NEUTROPHIL / NUCLEATED RED BLOOD CELLS / PLATELET COUNT: tissue Blood; for ALANINE AMINOTRANSFERASE / ALKALINE PHOSPHATASE / ASPARTATE AMINOTRANSFERASE / BLOOD UREA NITROGEN / CARBON DIOXIDE / CHLORIDE / CHOLESTEROL / CREATINE PHOSPHOKINASE / CREATININE / GLUCOSE / LACTATE DEHYDROGENASE / LIPASE / PHOSPHORUS / POTASSIUM / SODIUM / TOTAL BILIRUBIN / TOTAL PROTEIN / URIC ACID: tissue Plasma
[1] = 36 mg/kg, 120 h, dose level Low, time 5 day
[2] = 386 mg/kg, 72 h, dose level High, time 3 day
[3] = 386 mg/kg, 120 h, dose level High, time 5 day

c1ccc2c(c1)Nc1ccccc1S2 [PHENOTHIAZINE]
ABSOLUTE BASOPHIL [1]: 0 CELLS/uL
ABSOLUTE EOSINOPHIL [1]: 85 CELLS/uL
ABSOLUTE LYMPHOCYTE [1]: 7942.67 CELLS/uL
ABSOLUTE MONOCYTE [1]: 54.67 CELLS/uL
ABSOLUTE SEGMENTED NEUTROPHIL [1]: 984.33 CELLS/uL
BASOPHIL [1]: 0%
EOSINOPHIL [1]: 1%
ERYTHROCYTE COUNT [1]: 5.36 x10E6/uL
HEMATOCRIT [1]: 33.6%
HEMOGLOBIN [1]: 13.03 G/DL
LEUKOCYTE COUNT [1]: 9.07 x10E3/uL
LYMPHOCYTE [1]: 87.67%
MEAN CORPUSCULAR HEMOGLOBIN [1]: 24.33 pg
MEAN CORPUSCULAR HEMOGLOBIN CONCENTRATION [1]: 38.8 G/DL
MEAN CORPUSCULAR VOLUME [1]: 62.63 fL
MONOCYTE [1]: 0.67%
NEUTROPHIL [1]: 10.67%
NUCLEATED RED BLOOD CELLS [1]: 0 /100WBC
PLATELET COUNT [1]: 1083 x10E3/uL
ALANINE AMINOTRANSFERASE [1]: 54.67 u/L
ALKALINE PHOSPHATASE [1]: 331 u/L
ASPARTATE AMINOTRANSFERASE [1]: 95.67 u/L
BLOOD UREA NITROGEN [1]: 13.33 mg/dL
CARBON DIOXIDE [1]: 27 mmol/L
CHLORIDE [1]: 101.67 MEQ/L
CHOLESTEROL [1]: 59.67 mg/dL
CREATINE PHOSPHOKINASE [1]: 568.67 u/L
CREATININE [1]: 0.17 mg/dL
GLUCOSE [1]: 162.33 mg/dL
LACTATE DEHYDROGENASE [1]: 99.67 u/L
LIPASE [1]: 10.33 u/L
PHOSPHORUS [1]: 9.13 mg/dL
POTASSIUM [1]: 5.69 MEQ/L
SODIUM [1]: 147.3 MEQ/L
TOTAL BILIRUBIN [1]: 0.2 mg/dL
TOTAL PROTEIN [1]: 5.73 G/DL
URIC ACID [1]: 0.57 mg/dL
ABSOLUTE BASOPHIL [2]: 0 CELLS/uL
ABSOLUTE EOSINOPHIL [2]: 0 CELLS/uL
ABSOLUTE LYMPHOCYTE [2]: 9449.33 CELLS/uL
ABSOLUTE MONOCYTE [2]: 225 CELLS/uL
ABSOLUTE SEGMENTED NEUTROPHIL [2]: 1559 CELLS/uL
BASOPHIL [2]: 0%
EOSINOPHIL [2]: 0%
ERYTHROCYTE COUNT [2]: 6.26 x10E6/uL
HEMATOCRIT [2]: 38.97%
HEMOGLOBIN [2]: 14.93 G/DL
LEUKOCYTE COUNT [2]: 11.23 x10E3/uL
LYMPHOCYTE [2]: 84.67%
MEAN CORPUSCULAR HEMOGLOBIN [2]: 23.83 pg
MEAN CORPUSCULAR HEMOGLOBIN CONCENTRATION [2]: 38.3 G/DL
MEAN CORPUSCULAR VOLUME [2]: 62.3 fL
MONOCYTE [2]: 2%
NEUTROPHIL [2]: 13.33%
NUCLEATED RED BLOOD CELLS [2]: 0 /100WBC
PLATELET COUNT [2]: 976.33 x10E3/uL
ALANINE AMINOTRANSFERASE [2]: 78.33 u/L
ALKALINE PHOSPHATASE [2]: 354.33 u/L
ASPARTATE AMINOTRANSFERASE [2]: 109.33 u/L
BLOOD UREA NITROGEN [2]: 12.67 mg/dL
CARBON DIOXIDE [2]: 29.67 mmol/L
CHLORIDE [2]: 97 MEQ/L
CHOLESTEROL [2]: 128 mg/dL
CREATINE PHOSPHOKINASE [2]: 511 u/L
CREATININE [2]: 0.21 mg/dL
GLUCOSE [2]: 125 mg/dL
LACTATE DEHYDROGENASE [2]: 138.67 u/L
LIPASE [2]: 40.67 u/L
PHOSPHORUS [2]: 7.87 mg/dL
POTASSIUM [2]: 5.77 MEQ/L
SODIUM [2]: 142 MEQ/L
TOTAL BILIRUBIN [2]: 0.7 mg/dL
TOTAL PROTEIN [2]: 5.53 G/DL
URIC ACID [2]: 0.6 mg/dL
ABSOLUTE BASOPHIL [3]: 0 CELLS/uL
ABSOLUTE EOSINOPHIL [3]: 0 CELLS/uL
ABSOLUTE LYMPHOCYTE [3]: 8085.67 CELLS/uL
ABSOLUTE MONOCYTE [3]: 101 CELLS/uL
ABSOLUTE SEGMENTED NEUTROPHIL [3]: 1546.67 CELLS/uL
BASOPHIL [3]: 0%
EOSINOPHIL [3]: 0%
ERYTHROCYTE COUNT [3]: 5 x10E6/uL
HEMATOCRIT [3]: 31.27%
HEMOGLOBIN [3]: 12.03 G/DL
LEUKOCYTE COUNT [3]: 9.73 x10E3/uL
LYMPHOCYTE [3]: 82.67%
MEAN CORPUSCULAR HEMOGLOBIN [3]: 24.07 pg
MEAN CORPUSCULAR HEMOGLOBIN CONCENTRATION [3]: 38.53 G/DL
MEAN CORPUSCULAR VOLUME [3]: 62.43 fL
MONOCYTE [3]: 1%
NEUTROPHIL [3]: 16.33%
NUCLEATED RED BLOOD CELLS [3]: 0 /100WBC
PLATELET COUNT [3]: 1551.67 x10E3/uL
ALANINE AMINOTRANSFERASE [3]: 64.67 u/L
ALKALINE PHOSPHATASE [3]: 210.67 u/L
ASPARTATE AMINOTRANSFERASE [3]: 87.67 u/L
BLOOD UREA NITROGEN [3]: 15.33 mg/dL
CARBON DIOXIDE [3]: 27.67 mmol/L
CHLORIDE [3]: 101 MEQ/L
CHOLESTEROL [3]: 108.33 mg/dL
CREATINE PHOSPHOKINASE [3]: 236 u/L
CREATININE [3]: 0.23 mg/dL
GLUCOSE [3]: 135 mg/dL
LACTATE DEHYDROGENASE [3]: 68.67 u/L
LIPASE [3]: 11.33 u/L
PHOSPHORUS [3]: 9.1 mg/dL
POTASSIUM [3]: 5.66 MEQ/L
SODIUM [3]: 145.9 MEQ/L
TOTAL BILIRUBIN [3]: 0.33 mg/dL
TOTAL PROTEIN [3]: 5.3 G/DL
URIC ACID [3]: 0.77 mg/dL
